In ChEMBL document CHEMBL3992485 (Medchemcomm, 2016):
Activity calls are given as the source filed them. The calls are words filed in the database; no cut-off is given here.

Experiments:
[1] = system: HeLa; experiment: Cell cycle arrest in human HeLa cells assessed as accumulation at G1 phase at 0.5 uM after 24 hrs by propidium iodide staining based flow cytometry (reference value: 79.19%); format: functional
[2] = system: HeLa; experiment: Cell cycle arrest in human HeLa cells assessed as accumulation at G2/M phase after 24 hrs by propidium iodide staining based flow cytometry; format: functional
[3] = system: HeLa; experiment: Induction of apoptosis in human HeLa cells at 0.5 uM by Annexin-V-FITC/propidium iodide staining based flow cytometry; format: functional, cell-based; details: TDE = time-dependent effect
[4] = system: HeLa; experiment: Induction of apoptosis in human HeLa cells after 24 hrs by Annexin-V-FITC/propidium iodide staining based flow cytometry; format: functional, cell-based
[5] = system: HeLa; experiment: Cell cycle arrest in human HeLa cells assessed as accumulation at G2/M phase at 0.5 uM by propidium iodide staining based flow cytometry; format: functional; details: TDE = time-dependent effect
[6] = system: HeLa; experiment: Induction of apoptosis in human HeLa cells assessed as early apoptotic cells at 0.5 uM after 12 hrs by Annexin-V-FITC/propidium iodide staining based flow cytometry (reference value: 6.02%); format: functional
[7] = system: HeLa; experiment: Induction of apoptosis in human HeLa cells assessed as late apoptotic cells at 0.5 uM after 36 hrs by Annexin-V-FITC/propidium iodide staining based flow cytometry (reference value: 2.64%); format: functional
[8] = system: HeLa; experiment: Induction of apoptosis in human HeLa cells assessed as necrotic cells at 0.5 uM after 36 hrs by Annexin-V-FITC/propidium iodide staining based flow cytometry (reference value: 0.35%); format: functional
[9] = system: HeLa; experiment: Induction of apoptosis in human HeLa cells assessed as early apoptotic cells at 0.8 uM after 24 hrs by Annexin-V-FITC/propidium iodide staining based flow cytometry (reference value: 2.41%); format: functional
[10] = system: HeLa; experiment: Induction of apoptosis in human HeLa cells assessed as necrotic cells at 0.4 uM after 24 hrs by Annexin-V-FITC/propidium iodide staining based flow cytometry (reference value: 0.084%); format: functional
[11] = system: HeLa; experiment: Cell cycle arrest in human HeLa cells assessed as accumulation at S phase at 0.4 uM after 12 hrs by propidium iodide staining based flow cytometry (reference value: 49.41%); format: functional
[12] = system: HeLa; experiment: Induction of apoptosis in human HeLa cells assessed as viable cells at 0.5 uM after 12 hrs by Annexin-V-FITC/propidium iodide staining based flow cytometry (reference value: 91%); format: functional; details: read-out: Activity
[13] = system: HeLa; experiment: Induction of apoptosis in human HeLa cells assessed as viable cells at 0.2 uM after 24 hrs by Annexin-V-FITC/propidium iodide staining based flow cytometry (reference value: 94.4%); format: functional; details: read-out: Activity
[14] = system: HeLa; experiment: Inhibition of microtubule polymerization in human HeLa cells assessed as abnormal chromatin distribution at 0.2 uM after 24 hrs by DAPI staining based confocal microscopic analysis; format: cell-based
[15] = system: HeLa; experiment: Induction of apoptosis in human HeLa cells assessed as necrotic cells at 0.5 uM after 12 hrs by Annexin-V-FITC/propidium iodide staining based flow cytometry (reference value: 0.35%); format: functional
[16] = system: HeLa; experiment: Cell cycle arrest in human HeLa cells assessed as accumulation at G1 phase at 0.8 uM after 12 hrs by propidium iodide staining based flow cytometry (reference value: 85.81%); format: functional
[17] = system: HeLa; experiment: Induction of apoptosis in human HeLa cells assessed as necrotic cells at 0.1 uM after 24 hrs by Annexin-V-FITC/propidium iodide staining based flow cytometry (reference value: 0.084%); format: functional
[18] = system: HeLa; experiment: Cell cycle arrest in human HeLa cells assessed as accumulation at G2/M phase at 0.4 uM after 12 hrs by propidium iodide staining based flow cytometry (reference value: 2.15%); format: functional
[19] = system: HeLa; experiment: Cell cycle arrest in human HeLa cells assessed as accumulation at G1 phase at 0.4 uM after 12 hrs by propidium iodide staining based flow cytometry (reference value: 85.81%); format: functional
[20] = system: HeLa; experiment: Inhibition of microtubule polymerization in human HeLa cells assessed as appearance of short and curled microtubule fragments at 0.4 uM after 24 hrs by DAPI staining based confocal microscopic analysis; format: cell-based
[21] = system: HeLa; experiment: Induction of apoptosis in human HeLa cells assessed as early apoptotic cells at 0.4 uM after 24 hrs by Annexin-V-FITC/propidium iodide staining based flow cytometry (reference value: 2.41%); format: functional
[22] = system: HeLa; experiment: Cell cycle arrest in human HeLa cells assessed as accumulation at G1 phase at 0.5 uM after 12 hrs by propidium iodide staining based flow cytometry (reference value: 79.19%); format: functional
[23] = system: HeLa; experiment: Induction of apoptosis in human HeLa cells assessed as viable cells at 0.1 uM after 24 hrs by Annexin-V-FITC/propidium iodide staining based flow cytometry (reference value: 94.4%); format: functional; details: read-out: Activity
[24] = system: HeLa; experiment: Induction of apoptosis in human HeLa cells assessed as late apoptotic cells at 0.4 uM after 24 hrs by Annexin-V-FITC/propidium iodide staining based flow cytometry (reference value: 3.1%); format: functional
[25] = Antiproliferative activity against human 293T cells measured after 24 hrs by MTT assay; format: cell-based; details: 293T (HEK-293T) cells
[26] = system: HeLa; experiment: Cell cycle arrest in human HeLa cells assessed as accumulation at S phase at 0.1 uM after 24 hrs by propidium iodide staining based flow cytometry (reference value: 49.41%); format: functional

For `CCn1cc(C(=O)N2CCN(S(=O)(=O)c3c(C(C)C)cc(C(C)C)cc3C(C)C)CC2)c2ccccc21`, the Activity [1] was 5.23%, the Activity [2] was “Dose-dependent effect” and the Activity [3] was “Tde”. The Activity [4] was “Dose-dependent effect”, the Activity [5] was “Tde” and the Activity [6] was 8.12%. The Activity [7] was 21.2%, the Activity [8] was 0.329% and the Activity [9] was 32.6%. It also gave an Activity [10] of 0.581%, an Activity [11] of 40.08% and a viability at 0.5 µM [12] of 87.9%. The viability at 0.2 µM [13] was 71%, the inhibition [14] was “Active” and the Activity [15] was 0.03%. The Activity [16] was 10.02%, the Activity [17] was 0.141% and the Activity [18] was 51.71%. The Activity [19] was 22.09%, the inhibition [20] was “Active” and the Activity [21] was 23.1%. For the same molecule, the Activity [22] was 42.86%, the viability at 0.1 µM [23] was 85.1% and the Activity [24] was 12.8%. It also gave a CC50 at 24 h [25] of 424 µM and an Activity [26] of 49.47%.
